Results from patent US20110092456A1, “Methods of increasing cAMP levels and uses thereof” (priority 2009, published 2011).
Entries after “also recorded” stand apart in the source; their conditions may differ. Like-named read-outs stand apart in the source and are kept apart here.

Legend:
Akt [1] = experiment: Western blot of myocardial Akt; type: in vivo, rat; settings: rats, 3-day oral pretreatment, immunoblot, result in words
Protocol: (§1) Adenosine 5' triphosphate [γ32P] […] The supernatant was collected and the total protein concentration was determined using Lowry Protein Assay. The protein samples were subjected to SDS-PAGE with 4-20% gradient polyacrylamide gel and transferred to pure nitrocellulose membrane (0.45 μm) (Bio-Rad). After blocking with 5% skim milk in Tris-buffered saline, the membrane was incubated overnight at 4° C. with primary antibodies against eNOS, Akt, […]-eNOS, […]-eNOS, […]-Akt, and PTEN, and secondarily with HRP-conjugated anti-mouse or anti-rabbit antibodies. The immunoblots were developed using ECL western Blotting Detection Reagent (Amersham). The protein signals were pictured by an image-scanner and analyzed using Image J software (National Institutes of health, USA). The strength of each signal was normalized to the corresponding β-actin stain signal. Data are expressed as a ratio between the protein and the corresponding β-actin signal density.

myocardial infarct size [2] = settings: 3-day pretreatment, cited from earlier work
calcium dependent NOS = settings: atorvastatin 3-day pretreatment, 1 mg/kg/d; cited from earlier work
PTEN = experiment: Western blot of myocardial PTEN; type: in vivo, rat; settings: rats, 3-day oral pretreatment, immunoblot, result in words
Protocol: as §1

[3] = rat; 16 hours after the third dose, 10 mg/kg/d; cited from earlier work
eNOS [4] = settings: atorvastatin 3-day pretreatment, 1 mg/kg/d; cited from earlier work
myocardial adenosine = experiment: Myocardial adenosine levels (HPLC); type: in vivo, rat; settings: rats; 3-day oral pretreatment; result in words
Protocol: Adenosine 5′ triphosphate [γ32P] […] Adenosine was analyzed by high performance liquid chromatography (HPLC) according to the procedure of Wojcik and Neff {Wojcik, 1982 #325}. […] The protein concentration was determined by Lowry assay. Ten volumes of 0.25 M Ba(OH)2 was added and the samples were centrifuged at 30,000×g for 10 minutes. The supernatants were then transferred to a conical tube and 5 μl of chloroacetaldehyde added to 20 μl of supernatant. The tubes were capped, mixed and submerged in a boiling water bath for 10 min. The samples were analyzed by HPLC using a Waters C18 reversed phase 150 mm×4.6 mm column. […] The excitation monochromator was set to a wavelength of 270 nm and the cutoff wavelength of the emission filter was 389 nm.

eNOS [5] = experiment: Western blot of myocardial eNOS; type: in vivo, rat; settings: rats, 3-day oral pretreatment, immunoblot, result in words
Protocol: as §1

[6] = tested on: rat model of myocardial ischemia-reperfusion injury; experiment: Rat myocardial ischemia-reperfusion infarct size protocol; type: in vivo; settings: rats; for infarct size (as a percentage of the AR): FIG. 1, 3-day oral pretreatment; for infarct size: 3-day oral pretreatment (atorvastatin 2 mg/kg/d, cilostazol 20 mg/kg/d)
Protocol: Adenosine 5′ triphosphate [γ32P]
Hearts were excised and the left ventricle was sliced transversely into 6 sections. Slices were weighed and incubated for 15 minutes at 37° C. in 1% buffered (pH=7.4) 2,3,5-triphenyl-tetrazolium-chloride (TTC), fixed in a 10% formaldehyde and photographed in order to identify the AR (uncolored by the blue dye), the infarct size (unstained by TTC), and the non-ischemic zones (colored by blue dye). The area of AR and infarct size in each slice were determined by planimetry, converted into percentages of the whole for each slice, and multiplied by the weight of the slice and the results summed to obtain the weight of the myocardial AR and infarct size.

[7] = cited from earlier work
[8] = tested on: middle cerebral artery occlusion; settings: rat, cited from earlier work
[9] = 41 patients; cilostazol 200 mg/d versus aspirin 250 mg/d; cited from earlier work
myocardial infarct size [10] = settings: rabbit; intravenous 1 mg/kg/min for 5 min before myocardial ischemia; cited from earlier work
Akt [11] = settings: rat; oral 30 mg/kg after 2 hours of middle cerebral artery occlusion; cited from earlier work
[12] = tested on: permanent middle cerebral artery occlusion; settings: mouse; 30 mg/kg intraperitoneally three times (12 h before, 1 h before, just after ischemia); cited from earlier work
[13] = tested on: cAMP-dependent protein kinase (PKA); experiment: Myocardial protein kinase A (PKA) activity, rat; type: in vivo; settings: rats; 3-day oral pretreatment; myocardial samples; result in words
[14] = 30 min ischemia, 4 h reperfusion, mean±SEM

## CC(C)c1c(C(=O)Nc2ccccc2)c(-c2ccccc2)c(-c2ccc(F)cc2)n1CC[C@@H](O)C[C@@H](O)CC(=O)O [atorvastatin]
Akt [1]
  myocardial levels of Ser-473 P-Akt: small, statistically significant effect
  myocardial total Akt levels: did not affect
Myocardial infarct size [2]; 1 mg/kg/d
  infarct size: did not limit infarct size
Myocardial infarct size [2]; oral, 2 mg/kg/d
  infarct size: does not affect infarct size
Myocardial infarct size [2]; oral, 10 and 75 mg/kg/d
  infarct size: reduces infarct size
Calcium dependent NOS
  calcium dependent NOS activity: did not affect
PTEN
  myocardial PTEN levels: no effect
[3]
  blood levels of atorvastatin: comparable to those seen in humans treated with atorvastatin 80 mg/d
eNOS [4]
  myocardial levels of P-eNOS: did not affect
Myocardial adenosine
  myocardial adenosine levels: small increase in myocardial adenosine levels
eNOS [5]
  myocardial levels of Ser-1177 P-eNOS: but not on Ser-1177 P-eNOS and Ser-633 P-eNOS levels; also recorded: did not increase
  myocardial total eNOS levels: did not affect
[6]; result in words
  infarct size (as a percentage of the AR): did not affect infarct size
  infarct size: did not affect infarct size
[6]; [14]
  infarct size: 128 ± 8 mg

## O=C1CCc2cc(OCCCCc3nnnn3C3CCCCC3)ccc2N1 [cilostazol]
Akt [1]
  myocardial levels of Ser-473 P-Akt: augmented myocardial levels
  myocardial total Akt levels: did not affect
Akt [1]; listed as CIL
  myocardial levels of Ser-473 P-Akt: significantly increased
[7]; 50 patients, primary stenting for ST elevation acute myocardial infarction, cilostazol 100 mg BID versus aspirin alone
  6-month restenosis rate: 0%
[7]; 70 patients, Palmaz-Schatz stenting, cilostazol 200 mg/d, aspirin 81 mg/d
  in-stent stenosis: 8.6%
[7]; CREST, cilostazol 100 mg bid, all patients on clopidogrel 30 days and aspirin 6 months
  6-month restenosis after successful coronary stenting: 22.0%
[7]; RACTS trial, cilostazol 100 mg bid 6 months, ticlopidine 250 mg bid 1 month
  9-month target lesion revascularization rate per patient: 22.9%
[8]; 2 h occlusion, 24 h reperfusion, oral cilostazol 30 mg/kg, aspirin 300 mg/kg, clopidogrel 30 mg/kg
  brain infarct size: reduced brain infarct size
[8]; oral 30 mg/kg at 5 min and 4 h after completion of 2 hours of middle cerebral artery occlusion
  brain infarct size: reduces brain infarct size
[9]
  6-month angiographic outcomes: better 6-month angiographic outcomes than aspirin
  minimal lumen diameter at follow-up: larger
  percent diameter stenosis: smaller
  plaque area (intravascular ultrasound): smaller
Myocardial infarct size [10]
  effect of preconditioning by 2 min of ischemia: potentiates the effect of preconditioning
  myocardial infarct size: does not affect myocardial infarct size
PTEN
  myocardial PTEN levels: significantly reduce PTEN levels
PTEN; listed as CIL
  myocardial PTEN levels: significantly decreased
Akt [11]
  Akt phosphorylation: augmented Akt phosphorylation
[12]
  brain infarct size measured at 24 h: reduced brain infarct size
Myocardial adenosine
  myocardial adenosine levels: small increase in myocardial adenosine levels
eNOS [5]
  myocardial levels of Ser-633 P-eNOS: augmented myocardial levels
  myocardial levels of Ser-1177 P-eNOS: augmented myocardial levels
  myocardial total eNOS levels: did not affect
eNOS [5]; listed as CIL
  myocardial levels of Ser-633 P-eNOS: significantly increased
  myocardial levels of Ser-1177 P-eNOS: significantly increased
[13]
  cAMP-dependent protein kinase (PKA) activity: significantly increased
[6]; result in words
  infarct size (as a percentage of the AR): significantly smaller than in the control group
  infarct size: reduced infarct size; also recorded: significant reduction in infarct size
[6]; [14]
  infarct size: 56 ± 4 mg
